According to patent US20230039711A1, “AHR INHIBITORS AND USES THEREOF” (Ikena Oncology, Inc., priority 2020, published 2023):

Experiments:
[1] = tested on: other receptors, transporters, and kinases; test: Selectivity for AHR over other receptors, transporters, and kinases
[2] = tested on: human T cell; test: Human T cell assays; format: cell-based
[3] = biological target: T1, AHR (Homo sapiens, UniProt P35869); test: AHR translocation from cytoplasm to nucleus in the presence of a ligand, and downstream signaling in in vivo tumor models
T1 construct: host or cells: in vivo tumor models (not specified)
T1 sequence (P35869 11-848): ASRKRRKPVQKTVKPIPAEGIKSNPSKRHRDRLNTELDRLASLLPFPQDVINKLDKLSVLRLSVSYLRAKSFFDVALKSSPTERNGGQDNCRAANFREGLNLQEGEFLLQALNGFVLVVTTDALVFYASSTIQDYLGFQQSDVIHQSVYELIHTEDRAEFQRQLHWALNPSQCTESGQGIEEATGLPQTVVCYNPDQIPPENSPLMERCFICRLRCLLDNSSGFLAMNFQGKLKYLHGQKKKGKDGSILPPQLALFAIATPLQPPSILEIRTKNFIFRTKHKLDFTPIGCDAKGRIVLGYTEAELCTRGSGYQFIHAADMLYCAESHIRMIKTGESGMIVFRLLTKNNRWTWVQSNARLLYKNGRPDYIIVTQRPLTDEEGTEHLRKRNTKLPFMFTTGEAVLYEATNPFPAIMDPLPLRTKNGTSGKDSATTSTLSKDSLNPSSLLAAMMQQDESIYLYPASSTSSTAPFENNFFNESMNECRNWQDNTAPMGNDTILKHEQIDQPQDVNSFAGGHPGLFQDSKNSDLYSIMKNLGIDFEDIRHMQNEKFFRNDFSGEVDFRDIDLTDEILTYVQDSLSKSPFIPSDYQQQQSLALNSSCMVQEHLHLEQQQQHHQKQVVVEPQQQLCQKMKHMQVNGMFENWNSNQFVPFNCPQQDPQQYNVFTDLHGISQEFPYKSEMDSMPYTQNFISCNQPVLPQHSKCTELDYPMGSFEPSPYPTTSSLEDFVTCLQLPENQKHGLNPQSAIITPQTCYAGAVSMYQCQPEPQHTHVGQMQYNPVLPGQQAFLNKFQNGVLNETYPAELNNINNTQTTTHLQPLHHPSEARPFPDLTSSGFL

[4] = Nonclinical safety, single-dose and repeated-dose toxicological studies in rodent and non-rodent species; format: in vivo; settings: species not specified for these findings
[5] = Nonclinical safety studies incl. 28-day GLP study in rat; format: in vivo; settings: rats
[6] = Nonclinical safety studies incl. 28-day GLP study in monkeys; format: in vivo, monkey
[7] = Monotherapy dosing in human patients, safety; format: in vivo; settings: 200 mg, 400 mg, 800 mg, and 1200 mg once daily (QD)

## CC(C)c1cnn2c(N[C@@H]3CCc4[nH]c5ccccc5c4C3)nc(-c3cncc(F)c3)nc12 [Compound A, (R)-N-(2-(5-fluoropyridin-3-yl)-8-isopropylpyrazolo[1,5-a][1,3,5]triazin-4-yl)-2,3,4,9-tetrahydro-1H-carbazol-3-amine]
[1]
  selectivity for AHR over other receptors, transporters, and kinases: highly selective for AHR
[2]
  CYP1A1 gene expression: inhibits
  T cell state: induces an activated T cell state
  interleukin (IL)-22 gene expression: inhibits
  pro-inflammatory cytokine IL-2: increase
  pro-inflammatory cytokine IL-9: increase
[3]
  AHR translocating from the cytoplasm to the nucleus and downstream signaling: effectively blocks
[4]
  noteworthy findings of potential relevance to humans (general): emesis, loose stool, dehydration, body weight loss
[5]
  stomach findings: nonglandular stomach ulceration and edema
[5]; not resolved after 2 weeks of dosing cessation
  testicular findings: seminiferous tubule degeneration and debris in the epididymis lumen
[6]; monkey
  thymus weights and cortical lymphocytes: decreased
[6]; monkeys
  QTc prolongation: up to 11%
[7]
  serious adverse events (SAEs): no serious adverse events
